{"source": "patent US20110021530A1", "about": "“PYRIDAZINE DERIVATIVES AND THEIR USE AS THERAPEUTIC AGENTS IN THE TREATMENT OF SKIN DISORDERS” (XENON PHARMACEUTICALS INC., priority 2008, published 2011)", "key": {"sebaceous glands": {"tested_on": "sebaceous glands", "assay": "Effect of topically administered LCF369 on the sebaceous glands of NMRI mice (histomorphometry)", "type": "in vivo, female Crl:NMRI mice", "conditions": "for atrophogenic effect (recovery): 1% LCF369 7-day treatment", "procedure": "LCF369 is prepared either in a solution of ethanol/propylene glycol (3/7, v/v) or in topical formulations at 1.0, 0.5 or 0.1% for testing in female Crl:NMRI mice. In general, shaved application sites of approximately 2.5 cm^2 on the back of mice are treated twice daily (once on weekends or at study termination) with 50 μl of the LCF369 preparations. To prevent the animals from potential oral uptake of the epicutaneously applied compounds, they are fitted with ruffs and housed individually. After the last application, the animals are euthanised; the treated sites dissected and prepared for histological sections. Hematoxilin/eosin (HE)-stained 3 μm-thick sections are prepared from formalin-fixed, paraffin-embedded tissue. From each animal, one HE-stained section per site is histomorphometrically examined. The entire sections of approximately 10 mm length are evaluated microscopically (200×) for sebaceous glands. The mean size and mean number (per mm^2 dermis) of sectioned alveolar units of the sebaceous glands are determined in a coded fashion with an image analyzer (Axiovision, Zeiss). For statistical analysis, morphometric data are analyzed with a T-test or Mann-Whitney rank sum test. Frozen tissue sections (5 μm) are used for oil red O (lipid) staining.\nGroups of 5 mice are treated with 50 μl of 1% or 0.1% LCF369 twice daily (except on weekends, when the animals are treated once daily and on study termination) for 8 days (i.e. 14 applications in total). Four control animals are treated similarly with the vehicle alone. In life, the animals are observed for clinical signs and macroscopic changes of the application sites. One day after the last application, an evaluation is performed. In animals treated with 1.0% LCF369, untreated skin samples distant from the treated sites are also collected in order to assess systemic activity due to percutaneous absorption of LCF369.\nGroups of 4 mice are treated with 1.0% LCF369 twice daily for 2, 4, 6 and 8 days (i.e. up to 16 applications). Control groups remain untreated or are treated with the vehicle alone twice daily for 8 days.\nLCF369 is tested at 1.0%, 0.5% and 0.1%, groups of 6 mice are treated twice daily for 7 consecutive days. Evaluation is performed on the day following the 14th application.\nA 7-day b.i.d. (twice daily) treatment schedule (except on week ends when the animals were treated once daily) with 1.0% LCF369 is applied to groups of 7 mice which are evaluated on days 8 (one day after the 14th application), 24 and 41. For comparison, skin sections from animals treated with vehicle are examined on day 8 and skin samples from untreated animals of the same delivery were examined in parallel on days 8 and 41.\nThree different formulations containing 0.5% LCF369 are tested: i) emulsion gel with the penetration enhancer SEPA-9™ (batch 92.66.01-ra), ii) emulsion gel without a penetration enhancer (batch 9450-05-Ra), and iii) a formulation containing particulate compound (“follicular targeting formulation”). They are evaluated after 9 or 13 applications."}, "[1]": {"assay": "Solubility in co-solvents", "type": "physicochemical", "conditions": "compared with other co-solvents"}, "[2]": {"conditions": "0.1% LCF369 topical, 8 days (14 applications), treated sites (locally), day 9, mean (SD), 5 animals"}, "[3]": {"conditions": "0.5% LCF369 emulsion gel containing SEPA-9, 9 applications, mean (SD), 3 animals"}, "[4]": {"conditions": "0.5% LCF369 emulsion gel containing SEPA-9, 13 applications, mean (SD), 3 animals"}, "[5]": {"conditions": "0.5% LCF369 twice daily 7 days, vs vehicle-treated controls"}, "[6]": {"conditions": "1.0% LCF369 topical, 8 days (14 applications), treated sites (locally), day 9, mean (SD), 5 animals"}, "[7]": {"conditions": "1.0% LCF369 topical, 8 days, sites distant from the treated sites (distantly), day 9, mean (SD), 5 animals"}, "[8]": {"conditions": "1% LCF369 twice daily 7 days, vs vehicle-treated controls"}, "[9]": {"conditions": "1.0% LCF369 twice daily for 8 days as printed, vs vehicle, time point of this value not stated"}, "[10]": {"conditions": "1.0% LCF369 twice daily, 2 days of treatment, one day after last application, 4 animals"}, "[11]": {"conditions": "1.0% LCF369 twice daily, 4 days of treatment"}, "[12]": {"conditions": "1.0% LCF369 twice daily, 6 days of treatment"}, "[13]": {"conditions": "1.0% LCF369 twice daily, 8 days of treatment"}, "[14]": {"conditions": "1.0% LCF369 twice daily, after 4 days, vs vehicle"}, "[15]": {"conditions": "1.0% LCF369 twice daily, after 6 days, vs vehicle"}, "[16]": {"conditions": "1.0% LCF369 twice daily, after 8 days, vs vehicle"}, "[17]": {"conditions": "LCF 1%, 7-day b.i.d. treatment, evaluation day 8 (one day after last application), 7 animals"}, "[18]": {"conditions": "LCF 1%, 7-day treatment, evaluation day 24 (17 days after last application)"}, "[19]": {"conditions": "LCF 1%, 7-day treatment, evaluation day 41 (34 days after last application)"}, "[20]": {"conditions": "LCF369 0.1% (w/v) twice daily for 7 days"}, "[21]": {"conditions": "LCF369 0.5% (w/v) twice daily for 7 days"}, "[22]": {"conditions": "LCF369 1.0% (w/v) twice daily for 7 days, one day after last application, 6 animals"}, "[23]": {"conditions": "LCF369-treated vs vehicle-treated skin"}, "[24]": {"conditions": "one day after the 7 days-treatment period with 1% LCF369"}}, "note": "Marks after values point to notes of the source that are not given here."}
{"smiles": "O=C(NCCC1CC1)c1ccc(N2CCN(C(=O)c3cc(F)ccc3C(F)(F)F)CC2)nn1", "note": "[LCF369, 6-[4-(5-Fluoro-2-trifluoromethylbenzoyl)piperazin-1-yl]pyridazine-3-carboxylic acid (2-cyclopropylethyl)amide]", "values": [{"measurement": "atrophogenic effect", "setting": "sebaceous glands; 0.1% LCF369, 8 days", "result": "little or no atrophogenic effects"}, {"measurement": "Number of sebaceous glandular units", "setting": "sebaceous glands; [2]", "result": "34.3 (4.1) per mm^2 dermis"}, {"measurement": "Size of sebaceous glandular units", "setting": "sebaceous glands; [2]", "result": "1090 (200) μm^2"}, {"measurement": "Number of sebaceous glandular units", "setting": "sebaceous glands; [3]", "result": "10.6 (5.89)*"}, {"measurement": "Size (μm^2) of sebaceous glandular units", "setting": "sebaceous glands; [3]", "result": "745.8 (339.3)*** μm^2"}, {"measurement": "Number of sebaceous glandular units", "setting": "sebaceous glands; [4]", "result": "10.1 (3.48)*"}, {"measurement": "Size (μm^2) of sebaceous glandular units", "setting": "sebaceous glands; [4]", "result": "946.1 (134.0)*** μm^2"}, {"measurement": "hyper/parakeratosis and acanthosis in skin sections", "setting": "sebaceous glands; 0.5% LCF369 formulation containing SEPA-9 vs placebo-treated (vehicle-treated) samples", "result": "hyper/parakeratosis and acanthosis is more pronounced"}, {"measurement": "effect on sebaceous glands", "setting": "sebaceous glands; 0.5% LCF369 formulation containing penetration enhancer SEPA-9, 9 and 13 applications", "result": "significant atrophy of sebaceous glands"}, {"measurement": "reduction of mean size of sebaceous glands", "setting": "sebaceous glands; [5]", "result": 48, "unit": "%"}, {"measurement": "reduction of numbers of sebaceous glands per mm^2 dermis", "setting": "sebaceous glands; [5]", "result": 38, "unit": "%"}, {"measurement": "atrophogenic effect (recovery)", "setting": "sebaceous glands; day 24", "result": "substantially reduced"}, {"measurement": "atrophogenic effect (recovery)", "setting": "sebaceous glands; day 41", "result": "almost completely absent"}, {"measurement": "differences in numbers and sizes of sebaceous glands at sites distant from the LCF369 treatments", "setting": "sebaceous glands; 1.0% LCF369, 8 days, distant sites", "result": "no significant differences"}, {"measurement": "reduction of sebaceous glands in numbers, factor", "setting": "sebaceous glands; 1.0% LCF369, 8 days, vs vehicle, p<0.001", "result": "about 2.5"}, {"measurement": "reduction of sebaceous glands in sizes", "setting": "sebaceous glands; 1.0% LCF369, 8 days, vs vehicle, p<0.01", "result": "about 1.9 fold"}, {"measurement": "Number of sebaceous glandular units", "setting": "sebaceous glands; [6]", "result": "13.7 (8.2) *** per mm^2 dermis"}, {"measurement": "Size of sebaceous glandular units", "setting": "sebaceous glands; [6]", "result": "571 (200) ** μm^2"}, {"measurement": "Number of sebaceous glandular units", "setting": "sebaceous glands; [7]", "result": "28.4 (6.0) per mm^2 dermis"}, {"measurement": "Size of sebaceous glandular units", "setting": "sebaceous glands; [7]", "result": "1090 (250) μm^2"}, {"measurement": "reduction of numbers of sebaceous glands", "setting": "sebaceous glands; [8]", "result": 57, "unit": "%"}, {"measurement": "reduction of size of sebaceous glands", "setting": "sebaceous glands; [8]", "result": 60, "unit": "%"}, {"measurement": "treatment period after which the effect is statistically significant", "setting": "sebaceous glands; 1.0% LCF369 twice daily (8 applications)", "result": 4, "unit": "days"}, {"measurement": "progressive decrease in the numbers of sebaceous glands", "setting": "sebaceous glands; [9]", "result": 12, "unit": "%"}, {"measurement": "progressive decrease in the size of sebaceous glands", "setting": "sebaceous glands; [9]", "result": 19, "unit": "%"}, {"measurement": "Number of sebaceous glandular units", "setting": "sebaceous glands; [10]", "result": 24.8, "unit": "per mm^2 dermis"}, {"measurement": "Size (μm^2) of sebaceous glandular units", "setting": "sebaceous glands; [10]", "result": 1095, "unit": "μm^2"}, {"measurement": "Number of sebaceous glandular units", "setting": "sebaceous glands; [11]", "result": 18.0, "unit": "per mm^2 dermis"}, {"measurement": "Size (μm^2) of sebaceous glandular units", "setting": "sebaceous glands; [11]", "result": 875, "unit": "μm^2"}, {"measurement": "Number of sebaceous glandular units", "setting": "sebaceous glands; [12]", "result": 12.6, "unit": "per mm^2 dermis"}, {"measurement": "Size (μm^2) of sebaceous glandular units", "setting": "sebaceous glands; [12]", "result": 613, "unit": "μm^2"}, {"measurement": "Number of sebaceous glandular units", "setting": "sebaceous glands; [13]", "result": 7.0, "unit": "per mm^2 dermis"}, {"measurement": "Size (μm^2) of sebaceous glandular units", "setting": "sebaceous glands; [13]", "result": 374, "unit": "μm^2"}, {"measurement": "decrease of mean size of sebaceous glands", "setting": "sebaceous glands; [14]", "result": 35, "unit": "%"}, {"measurement": "reduction of numbers of sebaceous glands", "setting": "sebaceous glands; [14]", "result": 35, "unit": "%"}, {"measurement": "decrease of mean size of sebaceous glands", "setting": "sebaceous glands; [15]", "result": 35, "unit": "%"}, {"measurement": "reduction of numbers of sebaceous glands", "setting": "sebaceous glands; [15]", "result": 54, "unit": "%"}, {"measurement": "decrease of mean size of sebaceous glands", "setting": "sebaceous glands; [16]", "result": 72, "unit": "%"}, {"measurement": "reduction of numbers of sebaceous glands", "setting": "sebaceous glands; [16]", "result": 75, "unit": "%"}, {"measurement": "Number of sebaceous glandular units", "setting": "sebaceous glands; [17]", "result": 9.28}, {"measurement": "Size (μm^2) of sebaceous glandular units", "setting": "sebaceous glands; [17]", "result": 708, "unit": "μm^2"}, {"measurement": "Number of sebaceous glandular units", "setting": "sebaceous glands; [18]", "result": 17.4}, {"measurement": "Size (μm^2) of sebaceous glandular units", "setting": "sebaceous glands; [18]", "result": 1154, "unit": "μm^2"}, {"measurement": "Number of sebaceous glandular units", "setting": "sebaceous glands; [19]", "result": 21}, {"measurement": "Size (μm^2) of sebaceous glandular units", "setting": "sebaceous glands; [19]", "result": 1456, "unit": "μm^2"}, {"measurement": "Number of sebaceous glandular units", "setting": "sebaceous glands; [20]", "result": 23.8, "unit": "per mm^2 dermis"}, {"measurement": "Size (μm^2) of sebaceous glandular units", "setting": "sebaceous glands; [20]", "result": 1396, "unit": "μm^2"}, {"measurement": "Number of sebaceous glandular units", "setting": "sebaceous glands; [21]", "result": 14.5, "unit": "per mm^2 dermis"}, {"measurement": "Size (μm^2) of sebaceous glandular units", "setting": "sebaceous glands; [21]", "result": 870, "unit": "μm^2"}, {"measurement": "Number of sebaceous glandular units", "setting": "sebaceous glands; [22]", "result": 10.1, "unit": "per mm^2 dermis"}, {"measurement": "Size (μm^2) of sebaceous glandular units", "setting": "sebaceous glands; [22]", "result": 675, "unit": "μm^2"}, {"measurement": "histochemical (HE) staining of skin, sebaceous glands (FIG. 2B)", "setting": "sebaceous glands; [23]", "result": "fewer and smaller (atrophic) sebaceous glands"}, {"measurement": "oil red O staining, lipids associated with hair shafts (FIG. 3B)", "setting": "sebaceous glands; [23]", "result": "significantly reduced lipids associated with hair shafts"}, {"measurement": "minimal statistically significant effective concentration", "setting": "sebaceous glands; applied twice daily (50 μL each time) for 7 days", "result": 0.5, "unit": "%"}, {"measurement": "reduction of mean size of sebaceous glands", "setting": "sebaceous glands; [24]", "result": 50, "unit": "%"}, {"measurement": "reduction of numbers of sebaceous glands", "setting": "sebaceous glands; [24]", "result": 57, "unit": "%"}, {"measurement": "concentration at which efficacy is seen", "setting": "sebaceous glands; topical application", "result": "≥ 0.4", "unit": "%"}, {"measurement": "treatment time at which efficacy is seen", "setting": "sebaceous glands; topical application", "result": "≥ 4", "unit": "days"}, {"measurement": "solubility in benzyl alcohol", "setting": "[1]", "result": "surprisingly good solubility"}]}
